From publication PMC4326827, “Biophysical Studies on Interactions and Assembly of Full-size E3 Ubiquitin Ligase” (The Journal of Biological Chemistry, 2014)
*: point of attachment. Biotin = O=C1N[C@H]2[C@H](CS[C@H]2CCCCC(=O)*)N1; Ahx = NCCCCCC(=O)O

Assays:
[1] = biological target: T1, SOCS2-EloBC (Homo sapiens, UniProt O14508+Q15369+Q15370); experiment: ITC of GHR peptides and phosphotyrosine into SOCS2-EloBC; format: binding; details: 298 K
T1 construct: Recombinant human SOCS2 (amino acids 32–198); His6 (cleaved yes); made in house; host or cells: Escherichia coli BL21(DE3)

[2] = system: CRL5^SOCS2 (SOCS2, EloB, EloC, Cul5, and Rbx2); experiment: Peptide bead pull-down from K562 cell lysate, CRL5^SOCS2 components; format: binding; details: immobilized peptide beads, human K562 total cell lysate, 2 h at 4 °C, tandem mass tags MS
From the text: (§1) After washing, bound proteins were eluted with SDS-sample buffer and prepared for tandem mass tags labeling and MS analysis as described previously ([17]).

[3] = biological target: GHR_pY595-SOCS2-EloBC complex; experiment: ITC of Cul5NTD into GHR_pY595-SOCS2-EloBC (cooperativity); format: binding, human; details: titration of Cul5NTD into GHR_pY595-SOCS2-EloBC complex
Procedure: Experiments were conducted using an iTC200 microcalorimeter instrument (GE Healthcare). […] Peptides and Tyr(P) were dissolved in the same buffer. Obtained data were analyzed and fitted using the Microcal Origin version 7.0 software package. Binding enthalpy, dissociation constants, and stoichiometry were determined by fitting the data using a one-set-of-site binding model.

[4] = system: CRL1^FBXO31 E3 ligase (FBXO31, Rbx1, Cul1, and Skp1); experiment: Peptide bead pull-down from K562 cell lysate, CRL1^FBXO31 subunits; format: binding; details: peptide beads, human K562 cell lysate, 2 h at 4 °C, MS
From the text: as §1

[5] = biological target: SOCS2 (UniProt O14508); experiment: peptide-bead pull-down from lysate, TMT MS; details: reference: GHR_Y595 peptide beads; sites Y595

T1 sequence (O14508 32-198): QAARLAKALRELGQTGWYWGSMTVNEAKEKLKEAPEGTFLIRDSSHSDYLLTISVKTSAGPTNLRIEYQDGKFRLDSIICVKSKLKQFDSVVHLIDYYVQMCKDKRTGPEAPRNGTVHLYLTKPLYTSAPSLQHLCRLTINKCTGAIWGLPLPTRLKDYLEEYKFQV
T1 sequence (Q15369 17-112 partner limits assumed): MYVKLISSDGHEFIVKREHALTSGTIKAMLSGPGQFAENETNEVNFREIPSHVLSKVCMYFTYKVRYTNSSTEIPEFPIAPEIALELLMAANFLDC
T1 sequence (Q15370 whole entry partner, the tested form may be a part): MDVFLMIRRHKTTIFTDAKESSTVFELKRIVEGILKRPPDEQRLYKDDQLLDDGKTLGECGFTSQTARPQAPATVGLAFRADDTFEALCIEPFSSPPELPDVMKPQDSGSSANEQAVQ

Compound: N[C@@H](Cc1ccc(OP(=O)(O)O)cc1)C(=O)O [Tyr(P), phosphotyrosine]
- Kd ([1]; 350 μM peptide or 2 mM Tyr(P) into 30 μM SOCS2-EloBC, 50 mM HEPES, pH 7.5, 250 mM NaCl, 0.5 mM TCEP, one-set-of-site model): 191 µM
- binding affinity weaker than for phosphorylated peptide GHR_pY595 ([1]; ratio of Kd): ~100 -fold

Compound: Biotin-aminohexanoic acid-PVPDpYTSIHIV-amide [GHR_pY595-beads]
- capture of CRL5^SOCS2 components on peptide beads [2]: endogenous components of CRL5^SOCS2 E3 ligase were only captured by GHR_pY595-beads

Compound: Cul5NTD: Recombinant human Cul5NTD (N-terminal domain, residues 1–386) expressed in E. coli
- change in Kd or ΔH (cooperativity) [3]: No change in the Kd or ΔH values was observed

Compound: GHR_Y595-containing beads: biotinylated non-phosphorylated GHR_Y595 peptide immobilized on high capacity Neutravidin beads ({Biotin-Ahx}-PVPDYTSIHIV-NH2; SMILES CC[C@H](C)[C@H](NC(=O)[C@H](CO)NC(=O)[C@@H](NC(=O)[C@H](Cc1ccc(O)cc1)NC(=O)[C@H](CC(=O)O)NC(=O)[C@@H]1CCCN1C(=O)[C@@H](NC(=O)[C@@H]1CCCN1C(=O)CCCCCNC(=O)CCCC[C@@H]1SC[C@@H]2NC(=O)N[C@@H]21)C(C)C)[C@@H](C)O)C(=O)N[C@@H](Cc1c[nH]cn1)C(=O)N[C@H](C(=O)N[C@H](C(N)=O)C(C)C)[C@@H](C)CC)
- capture of CRL5^SOCS2 components on peptide beads [2]: no significant capturing from cell lysates was observed
- capture of CRL1^FBXO31 subunits [4]: significant recruitment of the four CRL1^FBXO31 subunits was also observed

Compound: growth hormone receptor (GHR) (from UniProt P10912) GHR_pY595 peptide beads
- binding against the reference [5]: gained
